In US20230301300A1, “HERBICIDAL COMPOSITIONS” (SYNGENTA CROP PROTECTION AG, priority 2020, published 2023):

Assays:
Assay type in all cases: in vivo
[1] = system: Zea mays (ZEAMX); test: B2 Post-Emergence Efficacy - Test 2; details: 15 days after application; for Herbicidal activity ZEAMX: 0-100 scale; for Herbicidal activity on a 0-100 scale, ZEAMX: 0=no damage, 100=total kill
In short: (§1)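 Herbicidal effect was rated visually from 0 (no damage) to 100 (complete kill) fifteen days after treatment. Seedlings had been raised for 12 days under controlled glasshouse conditions and then sprayed with the active ingredient formulated in IF50, diluted in water with 0.2% v/v Genapol X080 adjuvant.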

[2] = system: Setaria faberi (SETFA); test: B2 Post-Emergence Efficacy - Test 2; details: 15 days after application, 0=no damage, 100=total kill
In short: as §1

[3] = system: Euphorbia hetrophylla (EPHHL); test: B2 Post-Emergence Efficacy - Test 2; details: 15 days after application, 0-100 scale
In short: as §1

[4] = system: Stellaria media (STEME); test: B2 Post-Emergence Efficacy - Test 2; details: 15 days after application, 0-100 scale
In short: as §1

[5] = system: Galium aparine (GALAP); test: B2 Post-Emergence Efficacy - Test 2; details: 15 days after application, 0-100 scale
In short: as §1

[6] = system: Echinochloa crus galli (ECHCG); test: B2 Post-Emergence Efficacy - Test 2; details: 15 days after application, 0=no damage, 100=total kill
In short: as §1

[7] = system: Orysa sativa (ORYSA); test: B2 Post-Emergence Efficacy - Test 2; details: 15 days after application; for Herbicidal activity ORYSA: 0-100 scale; for Herbicidal activity on a 0-100 scale, ORYSA: 0=no damage, 100=total kill
In short: as §1

[8] = system: Chenopodium album (CHEAL); test: B2 Post-Emergence Efficacy - Test 2; details: 15 days after application, 0-100 scale
In short: as §1

[9] = system: Eleisine indica (ELEIN); test: B2 Post-Emergence Efficacy - Test 2; details: 15 days after application, 0=no damage, 100=total kill
In short: as §1

[10] = system: Veronica persica (VERPE); test: B2 Post-Emergence Efficacy - Test 2; details: 15 days after application, 0-100 scale
In short: as §1

[11] = system: Panicum miliaceum (PANMI); test: B2 Post-Emergence Efficacy - Test 2; details: 15 days after application, 0=no damage, 100=total kill
In short: as §1

[12] = system: Solanum nigrum (SOLNI); test: B1 Post-Emergence Efficacy - Test 1; details: 1000 g/ha, after 13 days, five point scale
In short: (§2)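 Pot-grown plants were sprayed 8 days after sowing (post-emergence) with compound at 1000 g/ha in acetone/water (50:50) containing 0.5% Tween 20. Glasshouse conditions were 24/16° C. day/night, 14 hours light, 65% humidity. Percentage damage was assessed after 13 days and scored on a 1–5 scale (5=80-100%; 1=0-19%).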

[13] = system: Echinochloa crus-galli (ECHCG); test: B1 Post-Emergence Efficacy - Test 1; details: 1000 g/ha, after 13 days, five point scale
In short: as §2

[14] = system: Lolium perenne (LOLPE); test: B1 Post-Emergence Efficacy - Test 1; details: 1000 g/ha, after 13 days, five point scale
In short: as §2

[15] = system: Setaria faberi (SETFA); test: B1 Post-Emergence Efficacy - Test 1; details: 1000 g/ha, after 13 days, five point scale
In short: as §2

[16] = system: Ipomoea hederacea (IPOHE); test: B1 Post-Emergence Efficacy - Test 1; details: 1000 g/ha, after 13 days, five point scale
In short: as §2

[17] = system: Amaranthus retoflexus (AMARE); test: B1 Post-Emergence Efficacy - Test 1; details: 1000 g/ha, after 13 days, five point scale
In short: as §2

## Cc1nn(C)c(=O)c(-c2c(F)ccc(Cl)c2CCc2ccccc2C(F)(F)F)c1O [Compound 1.066, 4-[3-chloro-6-fluoro-2-[2-[2-(trifluoromethyl)phenyl]ethyl]phenyl]-5-hydroxy-2,6-dimethyl-pyridazin-3-one]
[1]; 15 g/Ha
  Herbicidal activity ZEAMX: 0
  Herbicidal activity on a 0-100 scale, ZEAMX: 0
[1]; 30 g/Ha
  Herbicidal activity ZEAMX: 20
  Herbicidal activity on a 0-100 scale, ZEAMX: 20
[1]; 60 g/Ha
  Herbicidal activity ZEAMX: 20
  Herbicidal activity on a 0-100 scale, ZEAMX: 20
[1]; 125 g/Ha
  Herbicidal activity ZEAMX: 20
  Herbicidal activity on a 0-100 scale, ZEAMX: 20
[1]; 250 g/Ha
  Herbicidal activity ZEAMX: 30
  Herbicidal activity on a 0-100 scale, ZEAMX: 30
[1]; 500 g/Ha
  Herbicidal activity ZEAMX: 70
  Herbicidal activity on a 0-100 scale, ZEAMX: 70
[2]; 15 g/Ha
  Herbicidal activity on a 0-100 scale, SETFA: 0
[2]; 30 g/Ha
  Herbicidal activity on a 0-100 scale, SETFA: 70
[2]; 60 g/Ha
  Herbicidal activity on a 0-100 scale, SETFA: 70
[2]; 125 g/Ha
  Herbicidal activity on a 0-100 scale, SETFA: 80
[2]; 250 g/Ha
  Herbicidal activity on a 0-100 scale, SETFA: 90
[2]; 500 g/Ha
  Herbicidal activity on a 0-100 scale, SETFA: 90
[3]; 15 g/Ha
  Herbicidal activity EPHHL: 60
[3]; 30 g/Ha
  Herbicidal activity EPHHL: 70
[3]; 60 g/Ha
  Herbicidal activity EPHHL: 80
[3]; 125 g/Ha
  Herbicidal activity EPHHL: 90
[3]; 250 g/Ha
  Herbicidal activity EPHHL: 100
[3]; 500 g/Ha
  Herbicidal activity EPHHL: 100
[4]; 15 g/Ha
  Herbicidal activity STEME: 80
[4]; 30 g/Ha
  Herbicidal activity STEME: 60
[4]; 60 g/Ha
  Herbicidal activity STEME: 90
[4]; 125 g/Ha
  Herbicidal activity STEME: 90
[4]; 250 g/Ha
  Herbicidal activity STEME: 90
[4]; 500 g/Ha
  Herbicidal activity STEME: 100
[5]; 15 g/Ha
  Herbicidal activity GALAP: 20
[5]; 30 g/Ha
  Herbicidal activity GALAP: 20
[5]; 60 g/Ha
  Herbicidal activity GALAP: 20
[5]; 125 g/Ha
  Herbicidal activity GALAP: 20
[5]; 250 g/Ha
  Herbicidal activity GALAP: 30
[5]; 500 g/Ha
  Herbicidal activity GALAP: 90
[6]; 15 g/Ha
  Herbicidal activity on a 0-100 scale, ECHCG: 20
[6]; 30 g/Ha
  Herbicidal activity on a 0-100 scale, ECHCG: 80
[6]; 60 g/Ha
  Herbicidal activity on a 0-100 scale, ECHCG: 90
[6]; 125 g/Ha
  Herbicidal activity on a 0-100 scale, ECHCG: 90
[6]; 250 g/Ha
  Herbicidal activity on a 0-100 scale, ECHCG: 90
[6]; 500 g/Ha
  Herbicidal activity on a 0-100 scale, ECHCG: 90
[7]; 15 g/Ha
  Herbicidal activity ORYSA: 0
  Herbicidal activity on a 0-100 scale, ORYSA: 0
[7]; 30 g/Ha
  Herbicidal activity ORYSA: 0
  Herbicidal activity on a 0-100 scale, ORYSA: 0
[7]; 60 g/Ha
  Herbicidal activity ORYSA: 0
  Herbicidal activity on a 0-100 scale, ORYSA: 0
[7]; 125 g/Ha
  Herbicidal activity ORYSA: 10
  Herbicidal activity on a 0-100 scale, ORYSA: 10
[7]; 250 g/Ha
  Herbicidal activity ORYSA: 20
  Herbicidal activity on a 0-100 scale, ORYSA: 20
[7]; 500 g/Ha
  Herbicidal activity ORYSA: 40
  Herbicidal activity on a 0-100 scale, ORYSA: 40
[8]; 30 g/Ha
  Herbicidal activity CHEAL: 90
[8]; 60 g/Ha
  Herbicidal activity CHEAL: 90
[8]; 125 g/Ha
  Herbicidal activity CHEAL: 90
[8]; 250 g/Ha
  Herbicidal activity CHEAL: 100
[8]; 500 g/Ha
  Herbicidal activity CHEAL: 100
[9]; 15 g/Ha
  Herbicidal activity on a 0-100 scale, ELEIN: 0
[9]; 30 g/Ha
  Herbicidal activity on a 0-100 scale, ELEIN: 20
[9]; 60 g/Ha
  Herbicidal activity on a 0-100 scale, ELEIN: 70
[9]; 125 g/Ha
  Herbicidal activity on a 0-100 scale, ELEIN: 70
[9]; 250 g/Ha
  Herbicidal activity on a 0-100 scale, ELEIN: 70
[9]; 500 g/Ha
  Herbicidal activity on a 0-100 scale, ELEIN: 80
[10]; 15 g/Ha
  Herbicidal activity VERPE: 80
[10]; 30 g/Ha
  Herbicidal activity VERPE: 90
[10]; 60 g/Ha
  Herbicidal activity VERPE: 100
[10]; 125 g/Ha
  Herbicidal activity VERPE: 100
[10]; 250 g/Ha
  Herbicidal activity VERPE: 100
[10]; 500 g/Ha
  Herbicidal activity VERPE: 100
[11]; 15 g/Ha
  Herbicidal activity on a 0-100 scale, PANMI: 0
[11]; 30 g/Ha
  Herbicidal activity on a 0-100 scale, PANMI: 50
[11]; 60 g/Ha
  Herbicidal activity on a 0-100 scale, PANMI: 60
[11]; 125 g/Ha
  Herbicidal activity on a 0-100 scale, PANMI: 80
[11]; 250 g/Ha
  Herbicidal activity on a 0-100 scale, PANMI: 100
[11]; 500 g/Ha
  Herbicidal activity on a 0-100 scale, PANMI: 100
[12]
  percentage damage caused to the plant, SOLNI: 5 (5=80-100%)
[13]
  percentage damage caused to the plant, ECHCG: 5 (5=80-100%)
[14]
  percentage damage caused to the plant, LOLPE: 4 (4=60-79%)
[15]
  percentage damage caused to the plant, SETFA: 5 (5=80-100%)
[16]
  percentage damage caused to the plant, IPOHE: 5 (5=80-100%)
[17]
  percentage damage caused to the plant, AMARE: 5 (5=80-100%)
